Experimental data reported in patent US11040056B2, “Benzimidazoles that enhance the activity of oligonucleotides” (The University of North Carolina at Chapel Hill, priority 2018, dated 2021).

What was measured:
[1] = test system: P-glycoprotein (Pgp) expression in NIH-3T3-MDR cells; test: ASO mediated inhibition of MDR1 gene expression (Pgp by flow cytometry); type: cell-based, mouse; settings: 100 nM anti-MDR1 ASO 16 h; 10 μM UNC2383 2 h where used; 48 h
Procedure: FIG. 4. Effects with ASOs. Reduction of Pgp expression. NIH 3T3-MDR cells were incubated with 100 nM anti-MDR1 ASO or a mismatched (MM) control for 16 h in DMEM+1% FBS. Cells were rinsed and then treated with 10 μM UNC2383 for 2 h. The compound was removed, and the cells further incubated for 48 h. Expression of Pgp on the cell surface was determined by treating cells with Alexa 488 labeled anti-Pgp monoclonal antibody and binding quantitated by flow cytometry (PE(A)=units of fluorescence intensity). Treatment with ASO complexed with Lipofectamine 2000 (L2K) was a positive control. Y axis, cell counts; X axis, Alexa 488 fluorescence. […] Means±SE, N=3.
We also tested UNC2383 for its ability to affect ASOs rather than SSOs. The ASO was designed to inhibit expression of the MDR1 gene and its product the P-glycoprotein multidrug transporter. […] Cell surface expression of P-glycoprotein was monitored using an Alexa 488 labeled anti-Pgp monoclonal antibody and flow cytometry. […]
(§1) SSO-mediated luciferase induction assays were conducted as previously described. (18) In short, HeLaLuc705 cells in 24 well culture plates were preincubated with SSO623 followed by brief treatment with the small molecule; at intervals thereafter, luciferase activity and protein content were determined. […] Cytotoxicity of 2383 was monitored using the Alamar Blue assay. […]

[2] = test system: EGFP654 mouse tracheal epithelial cells (MTEC); test: Splicing correction (EGFP expression) in EGFP654 mouse tracheal epithelial cells; type: cell-based; settings: 1 uM SSO PS623 basolateral overnight, 3 uM OEC apical 2 hr
Procedure: FIG. 13. EGFP654 Mouse tracheal cells. Well-differentiated tracheal epithelial cells derived from the EGFP654 mouse were treated basolaterally with 1 uM SSO PS623 (overnight) and apically with 3 uM OEC2383 (2 hr) or vehicle. Confocal microscopy images (xy, xz planes), bar=20 um.
FIG. 15B: P-PMO+OEC mediated splicing correction in EGFP654 MTEC. Well-differentiated cultures of primary tracheal cells (MTEC) derived from the EGFP654 mouse were treated with only one dose of P-PMO“654” (0.5 uM, overnight) followed by vehicle (−) or OEC2383 or OEC7938 (+), (10 uM, 2 hs). Both the SSO and OEC were added in cell medium either into the basolateral (BL, 400 ul) or the apical (AP, 30 ul) sides. MTEC were imaged in face at low mag. with a 10× lens in a fluorescence microscope, after 48 hs and 65 days post-treatment. All wells had the same total cell numbers. Vehicle controls<10 cells/well; n=3, bar=70 um. 1) Basolateral delivery of one treatment of P-PMO and OEC corrected>70% MTEC/well at 48 hs post-treatment. EGFP expression was still evident in large groups of cells after 65 days.
Methods: SSO623 (1 uM) was incubated basolaterally overnight in well-differentiated primary tracheal epithelial cells (MTEC) derived from the EGFP654 mouse (Wang et al, 2017); OEC2383 was administered apically or basolaterally (1-4 uM for 2-3 hs). […]

[3] = test system: NIH-3T3-MDR cells; test: Alamar Blue cytotoxicity assay; type: cell-based; settings: 2 h exposure, then 24 h, FIG. 1E
Procedure: FIG. 1B-1E. Effects with SSOs. FIG. 1B Structure of UNC2383. FIG. 1C Compound 2383 enhances SSO effects. Cells were incubated in 24-well plates with 100 nM SSO623 or its mismatched control (MM) for 16 h in DMEM+10% FBS, rinsed and then treated with various concentrations of 2383 for 2 h. The cells were then rinsed and incubation continued for an additional 4 h in DMEM+10% FBS. Cells were rinsed twice in PBS and luciferase activity (RLU) and cell protein determined. The larger round symbol indicates the MM oligonucleotide. Means+/−SE. N=3. FIG. 1D Kinetics of 2383 action. Cells were preloaded with 100 nM SSO623 and then exposed to 2383 for various periods after which the compound was removed. The cells were further incubated and then luciferase and protein determined. The total time of incubation in each case was 6 h. FIG. 1E Cytotoxicity of 2383. HeLa Luc705 or NIH-3T3-MDR cells were exposed to 2383 as in (FIG. 1C) then incubated for 24 h in DMEM plus 10% FBS and tested using the Alamar Blue cytotoxicity assay. Means+/−SE. N=3.
as §1

O=C(Nc1nc2ccccc2n1CCN1CCCC1)c1cc2cc(Cl)ccc2o1 [UNC2383]
Pgp expression on the cell surface [1]: substantial reduction
EGFP expression / enhancing activity in MTEC [2]: notably expressed
concentrations showing little toxicity [3]: ≤ 10 µM
